The record followed here is patent publication EP0381527A1, “Ouabain like compounds and pharmaceutical compositions containing them” (YISSUM RESEARCH DEVELOPMENT COMPANY OF THE HEBREW …, priority 1989, dated 1990).

The structures appear in SMILES notation.

Experiment [1] deals with Na,K-ATPase. The experiment in a line: Inhibition of Na,K-ATPase activity in rat brain microsomal fraction (colorimetric inorganic phosphate). The class given is biochemical. Here is the method: Assays for Digitalis-Like Activity: • The digitalis-like activity of each fraction obtained in the course of the purification was determined quantitatively using at least two of the following bioassays: • a. Inhibition of [^3H]-ouabain binding: • The binding of [^3H]-ouabain to rat brain synaptosomal fraction was carried out by a conventional filtration technique as previously described (Lichtstein D., et al., Life Sci. 38: 1261-1270 (1986)). In brief: The reaction mixture (500µl final volume) contained the following constituents (final concentrations): 50 mM Tris-HCI buffer (pH 7.4), 0.5 mM EDTA, 80 mM NaCI, 4 mM MgSO4, 2 mM ATP (Tris, vanadium-free) and 32 nM [^3H]-ouabain (19.5 Ci/mmol). Reactions were initiated by the addition of 200 µl of crude synaptosomal fraction resulting in a final protein concentration of 200 µg per reaction. Following incubation for 1 hr. at 37° C, the reactions were terminated by the addition of 3 ml cold (4°C) 50 mM Tris-HCI (pH 7.4) and filtered over Whatman GF/B filters. The filters were washed two times with 3 ml volumes of the same Tris buffer, dried and assayed for radioactivity in a Packard liquid scintillation counter at a counting efficiency of approximately 50%. Specific binding was calculated by subtracting the binding observed in the presence of 100 µM unlabeled ouabain from that observed in the absence of unlabeled ouabain. Specific binding represented 93% of the total binding under control conditions. • b. Inhibition of Na, K-ATPase activity: • Na,K-ATPase activity in rat brain microsomal fraction was determined as previously described (Lichtstein D., et al., Life Sci. 38: 1261-1270 (1986)). Enzyme activity was measured by the colorimetric determination of inorganic phosphate after the incubation of microsomes (200 µg protein per reaction) at 37 C in a solution (final volume 500 µl) containing (final concentrations) 34 mM Tris-HCI (pH 7.4), 100 mM NaCl, 20 mM KCI, 4 Mm MgC12 and 4 mM ATP (Tris, vanadium free). After preincubation for 10 min., the ATP was added to initiate the reaction. Reactions were terminated by the addition of 100 µl of 5% trichloroacetic acid and.the precipitate was removed by centrifugation. Na,K-independent ATPase activity was determined by omitting Na^+ and K^+ from the reaction mixture or by the addition of 1 mM ouabain to the complete assay mixture. • c. Inhibition of ^86Rb uptake to N1E115 cells: • Neuroblastoma N1E115 cells were grown in MEM (Modified Eagle's Medium) medium. Cells were removed from their growth flask by raising and lowering the medium with a pipette and centrifuged at 100 x g in a Sorval RC-5 centrifuge for 10 minutes. The pellet was resuspended in MEM. 86Rb-uptake was initiated by the addition of N1E115 cells to MEM which contained ^86Rb tracer (1 µCi). Uptake was terminated after 1 min. by the addition of 1.5 ml ice cold 125 mM MgC12 solution followed by 1 min. centrifugation in an Eppendorf centrifuge. The Eppendorf tube was cut and the pellet removed and transferred to a scintilation vial, to which 6 ml of Emulsifier Scintillator 299TM (Packard) were added and radioactivity was determined.

The subject of experiment [2] is Na,K-ATPase. The experiment in a line: Inhibition of [3H]-ouabain binding to rat brain synaptosomal fraction (filtration). The settings on record: Figure 10; result in words. Here is the method:
Assays for Digitalis-Like Activity: • The digitalis-like activity of each fraction obtained in the course of the purification was determined quantitatively using at least two of the following bioassays: • a. Inhibition of [^3H]-ouabain binding: • The binding of [^3H]-ouabain to rat brain synaptosomal fraction was carried out by a conventional filtration technique as previously described (Lichtstein D., et al., Life Sci. 38: 1261-1270 (1986)). In brief: The reaction mixture (500µl final volume) contained the following constituents (final concentrations): 50 mM Tris-HCI buffer (pH 7.4), 0.5 mM EDTA, 80 mM NaCI, 4 mM MgSO4, 2 mM ATP (Tris, vanadium-free) and 32 nM [^3H]-ouabain (19.5 Ci/mmol). […] The filters were washed two times with 3 ml volumes of the same Tris buffer, dried and assayed for radioactivity in a Packard liquid scintillation counter at a counting efficiency of approximately 50%. Specific binding was calculated by subtracting the binding observed in the presence of 100 µM unlabeled ouabain from that observed in the absence of unlabeled ouabain. […] Inhibition of Na, K-ATPase activity: • Na,K-ATPase activity in rat brain microsomal fraction was determined as previously described (Lichtstein D., et al., Life Sci. 38: 1261-1270 (1986)). […]

Take `CCCC=CC(O)CC(O)CCCCCCCCCC(=O)O` (single isomer, unassigned) [DLC-II, 11,13-dihydroxy-14-octadecaenoic acid]: the “Na+, K+-ATPase activity (% of control)” value with Na,K-ATPase [1] (amount 1 (arbitrary units)) was 90 % of control; with Na,K-ATPase [1] (amount 2 (arbitrary units)), 67 % of control; in the experiment on Na,K-ATPase [1] (amount 3 (arbitrary units)) it was 71 % of control; in the experiment with Na,K-ATPase [1] (amount 5 (arbitrary units)), 51 % of control; in the experiment on Na,K-ATPase [1] (amount 8 (arbitrary units)), 10 % of control. The “inhibition of [^3H]-ouabain binding” value in the experiment on Na,K-ATPase [2] is “inhibit [^3H]-ouabain binding in a dose dependent mode”.
